Laboratory results: article PMC3836994, “Killer Bee Molecules: Antimicrobial Peptides as Effector Molecules to Target Sporogonic Stages of Plasmodium” (PLoS Pathogens, 2013)

Columns and labels:
Plasmodium spp. = conditions: An. gambiae infected with a variety of Plasmodium spp., magainin injected into the midgut haemocoel; ref [29]; cited from earlier work
Source text: (§1) Supplement ppat.1003790.s001.doc, table 1: Table S1. Peptide sequence, activity and source. | column: Sequence and description

P. falciparum = test: Field P. falciparum from gametocyte carriers membrane-fed to An. gambiae (Mali); assay type: in vivo, Plasmodium falciparum; conditions: 50 µM
Source text: Nyaganabougou, a village approximately 60 km south-west of the Malian capital, Bamako, was used as a site for the source of donors of malaria-infected blood. Due to its proximity to the river Niger, which provides perennial mosquito breeding sites, Nyaganabougou has high numbers of infected individuals and an extended transmission season. Mosquitoes used to establish the An. gambiae Mali colony used for this study were originally collected in the village of Kenieroba (a distance of 15 km from Nyaganabougou). Potential male and female gametocyte carriers between the ages of 6–10 were screened by thick smear and parasite species and density determined by local staff, led by Saibou Doumbia.
Gametocyte carriers were taken to the Malaria Research and Training Centre at the University of Bamako for blood donation. Approximately 4 ml of blood was extracted from carriers and immediately divided into 3 Hemotek membrane feeders for testing 2 separate AMPs and one control for each carrier. Peptides were added to 950 µl of gametocytaemic blood for a final concentration of 50 µM. All parasite-positive individuals were subsequently treated appropriately for parasites and associated symptoms, as determined by, and carried out by, local health workers in Nyaganabougou.
Approximately 120 adult female An. gambiae (Mali, 4–7 days old) were starved overnight, and allowed to feed on the gametocytaemic blood/AMP mix for 30 min. Engorged females were maintained on 10% glucose with 0.05% PABA for 8 days before dissection. No oviposition sites were provided so that fecundity could be measured by determining retained eggs. Mosquito wing length, numbers of retained eggs and oocysts were recorded, and triplicate peptide experiments were carried out on different mosquito cohorts, using blood from different donors. Where possible, a minimum of 50 mosquitoes were dissected for each condition.

[1] = tested on: wide spectrum of microorganisms; conditions: x as strong as magainin 2; ref [83]; cited from earlier work
Source text: as §1

Sequence | Oocyst development abolished (Plasmodium spp.) | Oocyst prevalence (oocyst positive mosquitoes), peptide (P. falciparum; Replicate 1, blood of gametocyte carriers, progeny of field An. gambiae) | Oocyst intensity (mean number of oocysts per gut, range in parentheses), peptide (P. falciparum; Replicate 1, field parasites and mosquitoes) | Reduction of prevalence (P. falciparum; single preliminary experiment) | Activity relative to magainin 2 [1]
GIGKFLHSAKKFGKAFVGEIMNS [Magainin II, AMP from Xenopus laevis skin, forms pores] | GIGKFLHSAKKFGKAFVGEIMNS. AMP from Xenopus laevis skin. Forms pores and induces cell permeabilisation. An. gambiae infected with a variety of Plasmodium spp. injected with magainin into the midgut haemocoel abolished oocyst development >80%. |  |  |  | 
KGRGKQGGKVRAKAKTRSS [Parasin, Parasin I, Isolated from the skin mucus of wounded catfish] |  | 3% (64) | <1 (0–2) | 80% | KGRGKQGGKVRAKAKTRSS. Isolated from the skin mucus of wounded catfish. Strong activity (12-100x as strong as magainin 2) against a wide spectrum of microorganisms, without any haemolytic activity.
